Measured values reported in US20250367348A1, “3D PRINTING OF 3-LAYERED RETINA AND CHOROID TISSUE” (Ramot at Tel-Aviv University Ltd., priority 2023, published 2025).

What was measured:
[1] = Rheological shear thinning measurements of native and cross-linked ECM hydrogel; assay type: physicochemical; details: 37° C.
Procedure: Rheological Properties: Rheological measurements were taken using Discovery HR-3 hybrid Rheometer (TA Instruments, DE) with 20 mm diameter parallel plate geometry with a Peltier plate to maintain the sample temperature. The samples were loaded at a temperature of 4° C., which was then raised to 37° C. to induce gelation; during which the oscillatory moduli of samples were monitored at a fixed frequency of 1 Hz and a strain of 1%.
The mechanical properties of an exemplary native ECM-based hydrogel (derived from omentum) and of cross-linked hydrogels were assessed by rheological measurements. Shear thinning measurements were conducted at 37° C. Data are presented as mean±SD, n=3. P-values were calculated using a Comparison of Fits test with an Extra Sum of Squares F-test.

[2] = Compressive (bulk) modulus of hydrogel; assay type: physicochemical; details: compression at 100 μm s^−1; n=3
Procedure: The compressive modulus measurements were performed using a Discovery HR-3 Hybrid Rheometer (TA Instruments, DE) with a 20 mm diameter parallel plate geometry and a Peltier plate to maintain the sample temperature. Bulk modulus tests were performed by compressing the samples at a fixed rate of 100 μm s^−1.
Alongside the rheological testing, the bulk mechanical properties of the hydrogel were also assessed. Samples were compressed, and the linear elastic modulus was calculated. Data are presented as mean±SD, n=3.

[3] = High-resolution imaging of hydrogel fiber morphology and pore size; assay type: physicochemical
Procedure: Data in FIG. 7I is presented as mean±SD, n=3, and each image had at least 180 pores whose area was determined using ImageJ.

[4] = test system: engineered RPE layer (blood vessel-RPE construct); test: Calcium imaging (Fluo-4-AM) after ATP addition; assay type: cell-based; details: 100 μM ATP added to medium; followed by slow decrease to baseline
Procedure: Calcium imaging: Fluo-4-AM was prepared by adding 45 μL DMSO and 45 μL Pluronic-DMSO to a 50 μg vial of Fluo-4-AM.Fluo-4-AM was diluted with HBSS in a ratio of 1:50 and the cells were incubated for 1 hour in 37° C. The cells were washed for 30 minutes in HBSS in 37° C. The sample was placed in an inverted microscope on a heating plate adjusted to 37° C. Fluo-4-AM emission is at 506 nm and excitation is at 494 nm. Images were acquired at a rate of 3.15 Hz. 10 seconds After starting the recording 100 μM ATP were added to the medium. The data was analyzed using ImageJ. TEM: TEM Samples were fixated in 2.5% Glutaraldehyde in PBS over night at 4° C. After several washes in PBS, the samples were post fixed in 1% OsO4 in PBS for 2 h at 4° C. Dehydration was carried out in graded ethanol followed by embedding in Glycid ether. Thin sections were mounted on Formvar/Carbon coated grids, stained with uranyl acetate and lead citrate and examined in Jeol 1400-Plus transmission electron microscope (Jeol, Japan). Images were captured using SIS Megaview III and iTEM the Tem imaging platform (Olympus).SEM: Samples for SEM were fixed with 2.5% glutaraldehyde (24 h, at […]), followed by a graded incubation series in ethanol-water solutions (50-100% (v/v)). […]

Molecule | change in gel viscosity ([1]; increasing SOx concentration to 0.07%) | change in gel viscosity ([1]; sample cross-linked with 0.03% SOx vs control gel) | hydrogel bulk (linear elastic) modulus with and without exposure to SOx [2] | internal fiber morphology of ECM hydrogel after reinforcement ([3]; before vs after exposure to SOx) | pore size (holes in the mesh) before and after crosslinking ([3]; n=3, at least 180 pores per image) | intracellular calcium levels [4]
Oxidized sucrose [SOx] | smaller increase | large increase | significant reinforcement | without altering the internal morphology | no difference was observed | 
Nc1ncnc2c1ncn2[C@@H]1O[C@H](COP(=O)(O)OP(=O)(O)OP(=O)(O)O)[C@@H](O)[C@H]1O [ATP, adenosine triphosphate] |  |  |  |  |  | immediately increased intracellular calcium levels in a significant manner
